ChEMBL document CHEMBL5046233, “Nitroxoline and its derivatives are potent inhibitors of metallo-β-lactamases” (Eur J Med Chem, 2022)
Converted amounts (≈) assume the structure as drawn. The source made the active and inactive calls. The rule behind the calls is not given here.

Assays:
Bacteria [1] = assay: Inhibition of recombinant NDM-1 (unknown origin) using fluorocillin as substrate in presence of ZnCl2 incubated for 30 mins by fluorescence based assay
Escherichia coli [2] = assay: Potentiation of imipenem-induced antibacterial activity against Escherichia coli T2359 expressing NDM-1 assessed as imipenem MIC at 32 mg/L by CLSI protocol based broth microdilution assay; assay type: functional
Escherichia coli [3] = assay: Potentiation of imipenem-induced antibacterial activity against Escherichia coli T2433 expressing OXA-48 assessed as imipenem MIC at 32 mg/L by CLSI protocol based broth microdilution assay; assay type: functional
Pseudomonas aeruginosa [4] = assay: Potentiation of imipenem-induced antibacterial activity against Pseudomonas aeruginosa T2282 expressing VIM-2 assessed as imipenem MIC at 32 mg/L by CLSI protocol based broth microdilution assay; assay type: functional
[5] = Cytotoxicity against human HUVEC cells assessed as metabolic activity measured after 24 hrs by cell-titer blue assay; assay type: toxicity, cell-based
Bacteria [6] = assay: Inhibition of recombinant IMP-1 (unknown origin) using fluorocillin as substrate at 3 uM incubated for 30 mins by fluorescence based assay
Pseudomonas aeruginosa [7] = assay: Potentiation of imipenem-induced antibacterial activity against Pseudomonas aeruginosa T2325 expressing IMP-1 assessed as imipenem MIC at 32 mg/L by CLSI protocol based broth microdilution assay; assay type: functional
Citrobacter freundii [8] = assay: Potentiation of imipenem-induced antibacterial activity against Citrobacter freundii T2354 expressing VIM-4 assessed as imipenem MIC at 32 mg/L by CLSI protocol based broth microdilution assay; assay type: functional
Serratia marcescens = assay: Potentiation of imipenem-induced antibacterial activity against Serratia marcescens T2352 expressing NDM-1 assessed as fold change in imipenem MIC at 32 mg/L by CLSI protocol based broth microdilution assay; assay type: functional
Klebsiella pneumoniae [9] = assay: Potentiation of imipenem-induced antibacterial activity against Klebsiella pneumoniae T2432 expressing KPC-9 assessed as imipenem MIC at 32 mg/L by CLSI protocol based broth microdilution assay; assay type: functional
Pseudomonas aeruginosa [10] = assay: Potentiation of imipenem-induced antibacterial activity against Pseudomonas aeruginosa T2357 expressing VIM-1 assessed as fold change in imipenem MIC at 32 mg/L by CLSI protocol based broth microdilution assay; assay type: functional
Escherichia coli [11] = assay: Potentiation of meropenem-induced antibacterial activity against Escherichia coli clinical isolate T2228 expressing VIM-1 assessed as meropenem MIC at 32 mg/L by CLSI protocol based broth microdilution assay; assay type: functional
Klebsiella pneumoniae [12] = assay: Potentiation of imipenem-induced antibacterial activity against Klebsiella pneumoniae clinical isolate T2301 expressing NDM-1 assessed as fold change in imipenem MIC at 32 mg/L by CLSI protocol based broth microdilution assay; assay type: functional
Escherichia coli [13] = assay: Potentiation of imipenem-induced antibacterial activity against Escherichia coli T2435 expressing KPC-2 assessed as imipenem MIC at 32 mg/L by CLSI protocol based broth microdilution assay; assay type: functional
Klebsiella pneumoniae [14] = assay: Potentiation of ceftazidime-induced antibacterial activity against Klebsiella pneumoniae clinical isolate T2301 expressing NDM-1 assessed as ceftazidime MIC at 32 mg/L by CLSI protocol based broth microdilution assay; assay type: functional
Pseudomonas aeruginosa [15] = assay: Potentiation of imipenem-induced antibacterial activity against Pseudomonas aeruginosa T2217 expressing VIM-2 assessed as imipenem MIC at 32 mg/L by CLSI protocol based broth microdilution assay; assay type: functional
Escherichia coli [16] = assay: Potentiation of imipenem-induced antibacterial activity against Escherichia coli clinical isolate T2228 expressing VIM-1 assessed as imipenem MIC at 32 mg/L by CLSI protocol based broth microdilution assay; assay type: functional
[17] = Inhibition of recombinant NDM-1 (unknown origin) using fluorocillin as substrate at 10 uM incubated for 30 mins by fluorescence based assay; conditions: Bacteria
Klebsiella pneumoniae [18] = assay: Potentiation of ciprofloxacin-induced antibacterial activity against Klebsiella pneumoniae clinical isolate T2301 expressing NDM-1 assessed as ciprofloxacin MIC at 32 mg/L by CLSI protocol based broth microdilution assay; assay type: functional
Escherichia coli [19] = assay: Synergistic antibacterial activity against Escherichia coli T2359 expressing NDM-1 assessed as fractional inhibitory concentration index in presence of imipenem by checkerboard assay; assay type: functional
Pseudomonas aeruginosa [20] = assay: Potentiation of imipenem-induced antibacterial activity against Pseudomonas aeruginosa T1098 expressing IMP-7 assessed as imipenem MIC at 32 mg/L by CLSI protocol based broth microdilution assay; assay type: functional
Citrobacter freundii [21] = assay: Potentiation of imipenem-induced antibacterial activity against Citrobacter freundii T2431 expressing KPC-3 assessed as fold change in imipenem MIC at 32 mg/L by CLSI protocol based broth microdilution assay; assay type: functional
Bacteria [22] = assay: Inhibition of recombinant VIM-1 (unknown origin) using fluorocillin as substrate at 10 uM incubated for 30 mins by fluorescence based assay
Klebsiella pneumoniae [23] = assay: Potentiation of imipenem-induced antibacterial activity against Klebsiella pneumoniae T2216 expressing VIM-1 assessed as fold change in imipenem MIC at 32 mg/L by CLSI protocol based broth microdilution assay; assay type: functional
Klebsiella pneumoniae [24] = assay: Bactericidal activity against Klebsiella pneumoniae T2301 expressing NDM-1 assessed as killing rate at 0.5 X MIC measured after 24 hrs in presence of imipenem by time-kill assay relative to control; assay type: functional
Escherichia coli [25] = assay: Potentiation of imipenem-induced antibacterial activity against Escherichia coli T2351 expressing NDM-5 assessed as fold change in imipenem MIC at 32 mg/L by CLSI protocol based broth microdilution assay; assay type: functional
Enterobacter cloacae = assay: Potentiation of imipenem-induced antibacterial activity against Enterobacter cloacae T2218 expressing GIM-1 assessed as fold change in imipenem MIC at 32 mg/L by CLSI protocol based broth microdilution assay; assay type: functional
Pseudomonas aeruginosa [26] = assay: Potentiation of imipenem-induced antibacterial activity against Pseudomonas aeruginosa T2217 expressing VIM-2 assessed as fold change in imipenem MIC at 32 mg/L by CLSI protocol based broth microdilution assay; assay type: functional
[27] = Inhibition of recombinant NDM-1 (unknown origin) using fluorocillin as substrate at 30 uM incubated for 30 mins by fluorescence based assay; conditions: Bacteria
Escherichia coli [28] = assay: Potentiation of imipenem-induced antibacterial activity against Escherichia coli T2435 expressing KPC-2 assessed as fold change in imipenem MIC at 32 mg/L by CLSI protocol based broth microdilution assay; assay type: functional
HUVEC = assay: Cytotoxicity against HUVEC cells assessed as late apoptosis by analysing number of sub-diploid events at 0.03 to 100 ug/mL measured after 24 hrs by propidium iodide staining based flow cytometry analysis; assay type: toxicity, cell-based; conditions: human, dose 0.03-100 µg/ml
Klebsiella pneumoniae [29] = assay: Potentiation of cefuroxime-induced antibacterial activity against Klebsiella pneumoniae clinical isolate T2301 expressing NDM-1 assessed as cefuroxime MIC at 32 mg/L by CLSI protocol based broth microdilution assay; assay type: functional
Pseudomonas aeruginosa [30] = assay: Potentiation of imipenem-induced antibacterial activity against Pseudomonas aeruginosa T1098 expressing IMP-7 assessed as fold change in imipenem MIC at 32 mg/L by CLSI protocol based broth microdilution assay; assay type: functional
Citrobacter freundii [31] = assay: Potentiation of imipenem-induced antibacterial activity against Citrobacter freundii T2431 expressing KPC-3 assessed as imipenem MIC at 32 mg/L by CLSI protocol based broth microdilution assay; assay type: functional

inhibition (Bacteria [1]): inactive
MIC (Escherichia coli [2]): 0.0005 µg/mL
MIC (Escherichia coli [3]): 0.002 µg/mL
MIC (Pseudomonas aeruginosa [4]): 0.008 µg/mL
inhibition (Bacteria [6]): 59%
MIC (Pseudomonas aeruginosa [7]): 0.001 µg/mL
MIC (Citrobacter freundii [8]): 0.25 µg/mL
MIC (Klebsiella pneumoniae [9]): 0.016 µg/mL
MIC (Escherichia coli [11]): 0.125 µg/mL
MIC (Escherichia coli [13]): 0.004 µg/mL
MIC (Klebsiella pneumoniae [14]): 0.064 µg/mL
MIC (Pseudomonas aeruginosa [15]): 0.016 µg/mL
MIC (Escherichia coli [16]): 0.001 µg/mL
inhibition [17]: 88%
MIC (Klebsiella pneumoniae [18]): 0.128 µg/mL
MIC (Pseudomonas aeruginosa [20]): 0.016 µg/mL
inhibition (Bacteria [22]): 100%
inhibition [27]: 96%
MIC (Klebsiella pneumoniae [29]): 4.1 µg/mL
MIC (Citrobacter freundii [31]): 0.004 µg/mL
SMILES: N#CCN(Cc1ccccc1)Cc1cc([N+](=O)[O-])c2cccnc2c1O
IC50 at 24 h [5]: 45 µg/mL (≈ 129 µM)
fold change (FC) (Serratia marcescens): 1024
fold change (FC) (Pseudomonas aeruginosa [10]): 32
fold change (FC) (Klebsiella pneumoniae [12]): 64
fractional inhibitory concentration index (FICI) (Escherichia coli [19]): 0.265
fold change (FC) (Citrobacter freundii [21]): 2
fold change (FC) (Klebsiella pneumoniae [23]): 8
Activity (Klebsiella pneumoniae [24]): >99.9%
fold change (FC) (Escherichia coli [25]): 8
fold change (FC) (Enterobacter cloacae): 4
fold change (FC) (Pseudomonas aeruginosa [26]): 16
fold change (FC) (Escherichia coli [28]): 1
Activity (HUVEC): Toxic
fold change (FC) (Pseudomonas aeruginosa [30]): 8
